For test [1], the system named is co-culture of mouse bone marrow cells and MB 1.8 mouse osteoblasts. Briefly: Osteoclastogenesis in murine co-cultures of bone marrow cells and MB 1.8 osteoblasts (TRAP fluorescence or counting of osteoclast-like cells). The test is classed as cell-based. As to conditions: FIG. 1.
Test [2] concerns bone marrow cultures. To be noted: cited from earlier work.

Turning to `CC1(O)CCOC(=O)C1` (racemic) [D,L-mevalonic acid lactone], in test [1] (D,L-mevalonic acid lactone 1 mM together with 1 or 10 μM lovastatin, added at days 5 and 6, read on day 7), the “reversal of lovastatin inhibition of osteoclastogenesis (TRAP fluorescence assay)” value is reported as “reversal”.
`CC[C@H](C)C(=O)O[C@H]1C[C@@H](C)C=C2C=C[C@H](C)[C@H](CC[C@@H]3C[C@@H](O)CC(=O)O3)[C@H]21` [lovastatin]: the “inhibition of osteoclastogenesis (tartrate resistant acid phosphatase activity, percent activity relative to no treatment)” value in test [1] (lovastatin 1 and 10 μM added at days 5 and 6, TRAP activity measured on day 7) is listed as “inhibition of osteoclastogenesis”.
For the compound `C[C@@](O)(CCO)CC(=O)O` [mevalonic acid], in test [2] (added to mevastatin), the “effect of added mevalonic acid on the inhibition of osteoclastogenesis by mevastatin” value is “partially restored”.
Regarding `CC[C@H](C)C(=O)O[C@H]1CCC=C2C=C[C@H](C)[C@H](CC[C@@H]3C[C@@H](O)CC(=O)O3)[C@H]21` [mevastatin], the “inhibition of in vitro osteoclastogenesis formation” value in test [2] is “inhibit in vitro osteoclastogenesis formation”.
